Test results as given in patent publication US20250188041A1, “NEW COMPOUNDS AND TREATMENT OF RENAL CELL CARCINOMA” (Trustlife Global Inc., priority 2022, published 2025).
pIC50: −log10 of the molar value. “Also recorded” adds a separate entry of the source. *1 amine or outer side, *2 acyl side, *3 side chain or, on linkers, in order; H or OH if unused. Where a SMILES comes first, the peptide text is derived from it. Bridges are numbered along the chain shown (N, C = ends). Roman numbers before positions name the chains, in order. [ ]: non-standard residue; d: D form. Actinocin(9to1) = Cc1c2oc3c(C)ccc(C(=O)[*:1])c3nc-2c(C(=O)[*:2])c(N)c1=O; NMeV = CN[C@H](C(=O)O)C(C)C; Sar = CNCC(=O)O

What was measured:
Type in all cases: cell-based, Human
RRM2 = assay: Western blot, RRM2 protein level in Caki-1 treated with repurposed drugs; conditions: 24 h, vs DMSO control
Procedure: (§1) Cell culture 1: Human clear cell renal cell carcinoma (ccRCC) cell line Caki-1 was obtained from the Karolinska Institute of Environmental Medicine, Stockholm, Sweden, derived from a ccRCC patient. The cells were cultured in RPMI 1640 medium with 10% fetal bovine serum (FBS) and 1% penicillin/streptomycin. The cells were cultivated at 37° C. in a humidified incubator with 5% CO2. TG-101209, NVP-TAE684, MK-0752, actinomycin-d, and panobinostat were purchased from Selleckchem ([…], […], […], […], […], Selleckchem, Houston, TX, USA), and withaferin-a was purchased from Sigma (W4394, Sigma-Aldrich, Saint Louis, MO, USA). These drugs were dissolved in DMSO. The cells (from cell culture 1) were seeded in a 96-well plate at 20×10^3 cells per well. After seeding for 24 h, the cells were treated for 24 h with the target drugs: TG-101209 (6 nM), NVP-TAE684 (3 nM), MK-0752 (5 nM), withaferin-a (4 uM), actinomycin-d (0.3 nM), and panobinostat (5 nM). The cells in the negative control group were only treated by DMSO for one day. The cells were washed with phosphate-buffered saline (PBS) and lysed with CelLytic M ([…], Sigma-Aldrich, Saint Louis, MO, USA) lysis buffer containing protease inhibitors. The lysates were centrifuged at 12 000 rpm for 5 min, and the supernatant was collected. The proteins were separated by Mini-PROTEAN® TGXTM Precast Gels (BioRad, Berkeley, CA, USA) and transferred to a Trans-Blot Turbo Mini 0.2 um PVDF Transfer Packs membrane (BioRad, Berkeley, CA, USA) by using Trans-Blot® TurboTM Transfer System (Bio-Rad, Berkeley, CA, USA). The antibodies for BUB1B (HPA008419), RRM2 (HPA056994), CEP55 (HPA023430), ASF1B(HPA069385), CCNB2 (HPA008873), and GAPDH (sc47724, Santa Cruz Biotechnology, Inc.) were used for primary immunoblotting. All the antibodies were diluted at 1:10000 concentration. The membranes were incubated in primary antibody solution overnight at 4° C. with gentle rocking. […] The protein bands were detected with ImageQuanattm LAS 500 (29-0050-63, GE) automatic exposure procedure or 6 min exposure.

Caki-1 = assay: CCK-8 cell viability assay of drug-treated Caki-1; conditions: 24 h, vs DMSO control
Procedure: Cell culture 1: Human clear cell renal cell carcinoma (ccRCC) cell line Caki-1 was obtained from the Karolinska Institute of Environmental Medicine, Stockholm, Sweden, derived from a ccRCC patient. The cells were cultured in RPMI 1640 medium with 10% fetal bovine serum (FBS) and 1% penicillin/streptomycin. The cells were cultivated at 37° C. in a humidified incubator with 5% CO2. TG-101209, NVP-TAE684, MK-0752, actinomycin-d, and panobinostat were purchased from Selleckchem ([…], […], […], […], […], Selleckchem, Houston, TX, USA), and withaferin-a was purchased from Sigma (W4394, Sigma-Aldrich, Saint Louis, MO, USA). These drugs were dissolved in DMSO. The cells (from cell culture 1) were seeded in a 96-well plate at 20×10^3 cells per well. After seeding for 24 h, the cells were treated for 24 h with the target drugs: TG-101209 (6 nM), NVP-TAE684 (3 nM), MK-0752 (5 nM), withaferin-a (4 uM), actinomycin-d (0.3 nM), and panobinostat (5 nM). The cells in the negative control group were only treated by DMSO for one day. Cell proliferation was detected by Cell Counting Kit-8 (CCK-8) assay. The 10 μl of CCK-8 reagent (1:10) was added to each well of 96-well plate with siRNA transfected cells or drug-treated cells by manufacturer's instruction. The 96-well plate was incubated at 37° C. for 2 hours and then measured absorbance at 450 nm using a microplate reader (Hidex Sense Beta Plus).

Caki-1 cells = assay: MTT cell viability assay of Caki-1 treated with TG-101209 and its alternatives
Procedure: (§2) Cell culture 2: Caki-1 was purchased from CLS Cell Lines Service (Germany). The cells were maintained in McCoy's SA (modified) medium (16600082, Thermo Fisher Scientific, USA) and supplemented with 10% fetal bovine serum (FBS, F7524, Sigma-Aldrich), 1% Penicillin/Streptomycin (P4333, Sigma-Aldrich).
The cytotoxic effects of the TG-101209 and its alternatives on the Caki-1 cells were tested by MTT (Thiazolyl Blue Tetrazolium Bromide) method. 1.5×10^4 cells were seeded per well in a 96-well plate in 100 μL growth media. […] After the incubation period, 5 mg/ml MTT (M2128, Sigma-Aldrich) solution in PBS (10 μL) was added to each well. After 1 hour, the MTT solution and all media were removed from the wells. 100 μl of DMSO was added and mixed to dissolve the formazan crystals. Cell viability was analysed by measuring the absorbance of the dissolved formazan at a wavelength of 570 nm with a microplate reader (Hidex Sense Beta Plus).

BUB1B [1] = assay: Western blot, BUB1B protein level in Caki-1 treated with repurposed drug; conditions: Caki-1, 6 nM, 24 h, compared to negative control (DMSO)
Procedure: as §1, with “inhibitors.” for “inhibitors. The lysates were centrifuged at 12 000 rpm for 5 min, and the supernatant was collected. The proteins were separated by Mini-PROTEAN® TGXTM Precast Gels (BioRad, Berkeley, CA, USA) and transferred to a Trans-Blot Turbo Mini 0.2 um PVDF Transfer Packs membrane (BioRad, Berkeley, CA, USA) by using Trans-Blot® TurboTM Transfer System (Bio-Rad, Berkeley, CA, USA). The antibodies for BUB1B (HPA008419), RRM2 (HPA056994), CEP55 (HPA023430), ASF1B(HPA069385), CCNB2 (HPA008873), and GAPDH (sc47724, Santa Cruz Biotechnology, Inc.) were used for primary immunoblotting. All the antibodies were diluted at 1:10000 concentration. The membranes were incubated in primary antibody solution overnight at 4° C. with gentle rocking.”

BUB1B [2] = assay: Western blot, BUB1B expression in Caki-1 treated with TG-101209 alternatives; conditions: Caki-1, 5 μM of target drug, 1 day (FIG. 41; method says 2 days)
Procedure: as §2
The target drugs developed as alternatives to TG-101209, were dissolved in 0.1% DMSO (41639, Sigma-Aldrich). Caki-1 cells from cell culture 2 were seeded in a 6-well plate at 3×10^5 cells per well. […]
The cells were washed with PBS solution and then lysed with CelLytic M (C2978, Sigma-Aldrich) lysis buffer containing protease inhibitors (11836170001, Roche). The cell lysates were centrifuged at 12 000 rpm for 10 min and supernatants were collected. Protein Assay Dye Reagent (5000006, Bio-Rad) was used for the determination of protein concentration. The absorbance of the proteins was measured spectrophotometrically at 595 nm by a microplate reader (Hidex Sense Beta Plus). Protein electrophoresis was performed using Mini-PROTEAN® TGX™ Precast Gels (4561086, Bio-Rad) and then the separated proteins were transferred to a Trans-Blot Turbo Mini 0.2 um PVDF Transfer Packs membrane (1704158, Bio-Rad) by using Trans-Blot® Turbo™ Transfer System (Bio-Rad). The membrane was blocked with 5% skim milk for 30 min at 4° C. with gentle rocking. After blocking, the membrane was treated with primary antibodies: Anti-BUB1B (HPA008419, Human Protein Atlas, Sweden) and Anti-Beta actin (ab8227, Abcam) as a loading control overnight at 4° C. on a rocking platform. After the treatment of primary antibodies, the membrane was washed three times with TBS-T buffer (A09-7500-100, Medicago). Then, Goat anti-Rabbit IgG-HRP (ab205718, Abcam) was treated as the secondary antibody for 30 min at 4° C. with gentle rocking.

**Q.** Which “protein level of RRM2” value (RRM2; Caki-1, 3 nM) does the source give for `COc1cc(N2CCC(N3CCN(C)CC3)CC2)ccc1Nc1ncc(Cl)c(Nc2ccccc2S(=O)(=O)C(C)C)n1` [NVP-TAE684] here?
**A.** The value was “significantly suppressed”.

**Q.** And the cell viability (Caki-1; Caki-1, CCK-8, 3 nM)?
**A.** The cell viability was “significantly reduced”.

**Q.** With `CC1=C(CO)C(=O)O[C@@H]([C@@H](C)[C@H]2CC[C@H]3[C@@H]4C[C@H]5O[C@]56[C@@H](O)C=CC(=O)[C@]6(C)[C@H]4CC[C@]23C)C1` [withaferin-a] as the compound, how does the “protein level of RRM2” value (RRM2; Caki-1, 4 uM) read?
**A.** The value was “significantly suppressed”.

**Q.** And the cell viability (Caki-1; Caki-1, CCK-8, 4 uM)?
**A.** The cell viability was “significantly reduced”.

**Q.** `Cc1c2oc3c(C)ccc(C(=O)N[C@@H]4C(=O)N[C@H](C(C)C)C(=O)N5CCC[C@H]5C(=O)N(C)CC(=O)N(C)[C@@H](C(C)C)C(=O)O[C@@H]4C)c3nc-2c(C(=O)N[C@@H]2C(=O)N[C@H](C(C)C)C(=O)N3CCC[C@H]3C(=O)N(C)CC(=O)N(C)[C@@H](C(C)C)C(=O)O[C@@H]2C)c(N)c1=O` [actinomycin-d] (I: T[dV]P[Sar][NMeV] / II: T[dV]P[Sar][NMeV]; ester I:1-I:C, II:1-II:C; linker I:N-II:N via Actinocin(9to1)) was tested. Which “protein level of RRM2” value (RRM2; Caki-1, 0.3 nM) did it give?
**A.** Its value is “does not work for inhibiting RRM2”.

**Q.** `Cc1cnc(Nc2ccc(N3CCN(C)CC3)cc2)nc1Nc1cccc(S(=O)(=O)NC(C)(C)C)c1` [TG-101209, reference compound] was tested. Which “cell viability (MTT assay)” value (Caki-1 cells; Caki-1, 10 μM, 1 day) did it give?
**A.** The value was “most profound effect on the cell viability”.

**Q.** And the pIC50 (Caki-1 cells; FIG. 43, assay not named, presumably Caki-1 cell viability)?
**A.** Its pIC50 is about 5.52.

**Q.** What about the “Ranking, Cell viability (%)” value (Caki-1 cells; top five target drugs, MTT assay, 10 μM, 1 day, rank 1 = greatest reduction) of the same compound?
**A.** The value was 5.

**Q.** And the “protein level of BUB1B” value (BUB1B [1])?
**A.** The value was “significantly decreased; also recorded: significantly reduced”.

**Q.** And the cell viability (Caki-1; Caki-1, CCK-8, 6 nM)?
**A.** The cell viability was “significantly reduced”.

**Q.** What about the “expression levels of BUB1B” value (BUB1B [2]) of the same compound?
**A.** The value was “significantly lower the expression levels of BUB1B”.
